Measured values reported in publication PMC11335512, “The first-in-class pro-apoptotic peptide PEP-010 is effective in monotherapy and in combination with paclitaxel on resistant ovarian adenocarcinoma cell models” (Frontiers in Pharmacology, 2024).

Experiments:
Assay type in all cases: cell-based
IGROV1CDDP [1] = test: MTT assay, IC50 determination of chemotherapies; conditions: for IC50: MTT assay, 72 h treatment, IGROV1CDDP (cisplatin-resistant), mean ± SEM, three to six independent biological replicates
Method: (§1) The ovarian cell lines IGROV1, IGROV1CDDP, and IGROV1VCR were cultivated in RPMI 1640 Medium GlutaMAX with 10% FBS and 1% of pyruvate and glutamine. They were maintained at 5% CO2 and 37°C in a humidified atmosphere. All reagents are from Gibco® (Thermo Fisher Scientific, Carlsbad, CA, United States).
(§2) PEP-010 was first dissolved in 0.1% formic acid (10 mM) and then diluted in a cell culture medium at pH9 (to allow a full dissolution of the peptide). Experiments in similar conditions, but without the peptide, were conducted as negative controls. Staurosporine (Selleckchem, Houston, TX, United States) was used as a positive control at a concentration of 1 µM. Cells were collected or analyzed at the indicated time points. For combination conditions, the cells were treated with paclitaxel (Accord, London, United Kingdom) at the indicated concentrations for 72 h.
(§3) Here, 10,000 cells were seeded on 96-well plates in 100 µL of medium. The day after, the medium was replaced with fresh medium containing the appropriate drugs at the indicated concentrations: cisplatin (Mylan, Canonsburg, PA, United States), paclitaxel (Accord, London, United Kingdom), doxorubicin (Pfizer, New York, NY, United States), vincristine [Pfizer, New York, NY, United States)], and/or PEP-010. The plates were incubated at 37° in humidified air with 5% CO2 for 72 h. The MTT reagent (20 µL) was added at the end of the indicated time points, and plates were incubated for 2 h at 37°C. In addition, 100 µL of lysis buffer was added to each well. Subsequently, the plates were incubated for 2 h at 37°C, and the absorbance was measured at 570 nm (Tecan, Männedorf, CH).

IGROV1 [2] = test: MTT assay, IC50 determination of chemotherapies; conditions: Homo sapiens, IGROV-1, 72 h treatment, IGROV1 parental, three to six independent biological replicates
Method: as §1, §2, §3

IGROV1VCR [3] = test: MTT assay, IC50 determination of chemotherapies alone or with PEP-010; conditions: for fold change (FC) vs. IC50 IGROV1: IC50 in IGROV1VCR over IC50 in IGROV1, MTT 72 h; for IC50: 72 h treatment, IGROV1VCR (vincristine-resistant, expresses MDR pumps), drug alone, mean ± SEM, three to six independent biological replicates
Method: as §1, §2, §3

IGROV1VCR [4] = test: DNA damage, γH2AX immunofluorescence; conditions: 48 h post-treatment with PEP-010, IGROV1VCR; untreated control 20.7 ± 1.7; mean ± SEM, three biological replicates
Method: (§4) Cells were seeded on 12 mm coverslips placed in a 24-well plate (24 h, 37°C, and 5% CO2). Cells were treated with PEP-010 as previously described. At the indicated time point, cells were washed with 1X PBS and fixed in 4% paraformaldehyde (Euromedex, Souffelweyersheim, FR) in 1X PBS (10 min, RT), followed by three washes in 1X PBS. Cells were then permeabilized with 2% Triton X-100 (Euromedex, Souffelweyersheim, FR) in 1X PBS (10 min, RT) and then washed in 1X PBS. Cells were saturated with 0.5% BSA (Euromedex, Souffelweyersheim, FR) in 1X PBS (40 min, RT) and then stained with an anti-γH2AX Ser139 antibody (mouse, 1:200, from BioLegend #613402). Incubation with primary antibody (2 h, RT) was followed by three washes in 1X PBS and by incubation (1 h, RT) with a secondary antibody conjugated to Alexa Fluor […] goat anti-mouse (Thermo Fisher Scientific, Carlsbad, CA, United States), diluted 1:200. Coverslips were mounted on microscopy glass slides using a mounting medium containing DAPI (Sigma-Aldrich, Saint-Quentin-Fallavier, Cedex, France). Images were acquired using a fluorescence microscope (Zeiss Observer Z1). Images were analyzed using ImageJ software.

IGROV1CDDP [5] = test: DNA damage, γH2AX immunofluorescence; conditions: 48 h post-treatment with PEP-010, IGROV1CDDP; untreated control 15.8 ± 2.8; mean ± SEM, three biological replicates
Method: as §4

[6] = tested on: ovarian adenocarcinoma cell models resistant to different chemotherapies; test: Cell death in monotherapy (Annexin-V/Propidium Iodide staining and flow cytometry); conditions: PEP-010 monotherapy; highest value stated in abstract, dose and cell line not stated there
Method: as §2
(§5) Cell death was assessed using Annexin V-APC and propidium iodide (PI) (BioLegend, San Diego, CA, United States) staining following the manufacturer’s instructions. Results were analyzed as previously described ([Debernardi et al., 2018]). A total of 10,000 events were analyzed using a C6 Accuri Cytometer (Becton-Dickinson, Franklin Lakes, NJ, United States), analysis was performed using integrated software, and Annexin V positive cells (PI positive and negative) were counted as apoptotic.

IGROV1VCR [7] = test: Apoptosis measurement, Annexin V/PI staining and FACS analysis
Method: as §2, §5

IGROV1CDDP [8] = test: as above; conditions: PEP-010 12.5 µM, 24 h post-treatment, untreated control 14.6 ± 1.2, mean ± SEM, three independent biological replicates
Method: as §2, §5

IGROV1 [9] = test: as above; conditions: PEP-010 12.5 µM, 24 h post-treatment, untreated control 11 ± 1.3, mean ± SEM, three independent biological replicates
Method: as §2, §5

| Molecule | IC50 (IGROV1CDDP [1]) [nM] | IC50 (IGROV1 [2]) [nM] | fold change (FC) vs. IC50 IGROV1 (IGROV1VCR [3]) | IC50 (IGROV1VCR [3]; MTT assay) [nM] | fold change (FC) vs. IC50 IGROV1 (IGROV1CDDP [1]; IC50 in IGROV1CDDP over IC50 in IGROV1, MTT 72 h) | % of γH2AX positive cells (IGROV1VCR [4]) [%] | % of γH2AX positive cells (IGROV1CDDP [5]) [%] | cell death in monotherapy, % of cells [6] | total % of Annexin V positive cells (IGROV1VCR [7]; PEP-010 12.5 µM, 24 h post-treatment, IGROV1VCR, untreated control 12.6 ± 0.9, mean ± SEM, three independent biological replicates) [%] | apoptosis, % of cells, combination with paclitaxel (IGROV1VCR [7]; PEP-010 in combination with paclitaxel, stated in abstract, doses not given) [%] | total % of Annexin V positive cells (IGROV1CDDP [8]) [%] | total % of Annexin V positive cells (IGROV1 [9]) [%] | FC, reduction of the IC50 of paclitaxel (PTX alone vs. PTX + PEP-010) (IGROV1VCR [3]; MTT assay, 72 h, IGROV1VCR, PEP-010 25 µM) |
| --- | --- | --- | --- | --- | --- | --- | --- | --- | --- | --- | --- | --- | --- |
| CC(=O)O[C@H]1C(=O)[C@@]2(C)[C@H]([C@H](OC(=O)c3ccccc3)[C@]3(O)C[C@H](OC(=O)[C@H](O)[C@@H](NC(=O)c4ccccc4)c4ccccc4)C(C)=C1C3(C)C)[C@]1(OC(C)=O)CO[C@@H]1C[C@@H]2O [Paclitaxel, paclitaxel] | 500 | 750 | 3.9 | 2900 | – | – | – | – | – | – | – | – | – |
| N.N.[Cl][Pt][Cl] [Cisplatin, cisplatin] | 25700 | – | 6.5 | 15000 | 11.1 | – | – | – | – | – | – | – | – |
| CC[C@]1(O)C[C@H]2CN(CCc3c([nH]c4ccccc34)[C@@](C(=O)OC)(c3cc4c(cc3OC)N(C=O)[C@H]3[C@@](O)(C(=O)OC)[C@H](OC(C)=O)[C@]5(CC)C=CCN6CC[C@]43[C@@H]65)C2)C1 [Vincristine, vincristine] | 900 | 34 | 97 | 3300 | – | – | – | – | – | – | – | – | – |
| VKKKKIKAEIKIYVETLDDIFEQWAHSEDL [PEP-010] | – | – | – | – | – | 29.5 ± 2.6 | 26.5 ± 3.1 | up to 55% | 37 ± 4 | 87 | 38.7 ± 8.5 | 37.4 ± 1.9 | 2.2 |
| COc1cccc2c1C(=O)c1c(O)c3c(c(O)c1C2=O)C[C@@](O)(C(=O)CO)C[C@@H]3O[C@H]1C[C@H](N)[C@H](O)[C@H](C)O1 [Doxorubicin, doxorubicin] | 500 | 400 | – | > 10000 | – | – | – | – | – | – | – | – | – |
